# Results published in patent US20240100075A1, “Synthetic Compositions Comprising LNFP III and LSTa” (FrieslandCampina Nederland B.V., priority 2020, published 2024).
# What was measured:
# Format in all cases: cell-based, human
# FoxP3 = assay: Intracellular staining of transcription factors in PBMCs (FACS), FoxP3; conditions: PBMC, single HMOs and total pool of HMO; method not given
# Protocol: (§1) For intracellular staining PBMCs from 3 donors were incubated with the mentioned HMOs (0.5 g/1) for 24 h prior to analysis. In a 96-wells plate 5*10^5 PBMCs were pelleted at 300 g for 4 minutes. Subsequently, the cells were blocked using 25 μL of blocking buffer (Human BD Fc Block™,BD) and incubated for 10 minutes at room temperature. Then, 25 μL of anti-CD4 FITC (555346, BD) and anti-CD3 APC (555335, BD) were added to each test. The cells were incubated 30 minutes on ice. After the cells were washed twice with Stain Buffer (FBS) (554657, BD) an intracellular staining for the transcription factors was performed by the Transcription Factor Buffer Set (562574, BD). FoxP3 PE (560852, BD) and RORγT PE (563081, BD) were used. Cells were analyzed with FACS (Easycyte 8HT). Expression of FoxP3 and RORγT was analyzed in the CD4-positive cells.
# PBMC's from 3 donors were isolated from a buffy coat using Sepmate tubes. The cells were diluted to a concentration of 1*10^7 cells per ml. The PBMC's were seeded in 6 wells plates and treated with 0.5 g/l of 2′-FL or a mix of LNFP-III with LSTa 1:1 w/v in PBMC culturing medium for 24 h. Cells incubated with no HMOs were used as control. For Fluorescence Activated Cell Sorting (FACS), 5*10^5 PBMCs were pelleted at 300 g for 4 minutes in a 96-well plate.
# as §1, with “Subsequently,” for “For intracellular staining PBMCs from 3 donors were incubated with the mentioned HMOs (0.5 g/1) for 24 h prior to analysis. In a 96-wells plate 5*10^5 PBMCs were pelleted at 300 g for 4 minutes. Subsequently,”, “8HT).” for “8HT). Expression of FoxP3 and RORγT was analyzed in the CD4-positive cells.”
# Interleukin-10 (IL-10) = assay: Cytokine analysis (Cytometric Bead Array) in PBMC supernatant, IL-10; conditions: for effect on the expression of IL10 (summary statement): PBMC, single HMOs and total pool of HMO, method not given
# Protocol: BD™ Cytometric Bead Array (CBA) Human Th1/Th2/Th17 Cytokine Kit (560484, BD) was used to measure Interleukin-6 (IL-6) and Interleukin-10 (IL-10) protein levels in supernatant following the manufacturer's instructions. After acquiring samples on the FACS (Easycyte 8HT), the FCAP Array™ software was used to determine cytokine concentrations.
# PBMC's from 3 donors were isolated from a buffy coat using Sepmate tubes. The cells were diluted to a concentration of 1*10^7 cells per ml. The PBMC's were seeded in 6 wells plates and treated with 0.5 g/l of 2′-FL or a mix of LNFP-III with LSTa 1:1 w/v in PBMC culturing medium for 24 h. Cells incubated with no HMOs were used as control. The supernatants from these cultures were collected and BD™ Cytometric Bead Array (CBA) Human Th1/Th2/Th17 Cytokine Kit (560484, BD) was used to measure Interleukin-6 (IL-6) and Interleukin-10 (IL-10) protein levels in supernatant following the manufacturer's instructions. After acquiring samples on the FACS (Easycyte 8HT), the FCAP Array™ software was used to determine cytokine concentrations.
# Interleukin-6 (IL-6) = assay: Cytokine analysis (Cytometric Bead Array) in PBMC supernatant, IL-6; conditions: PBMCs of 3 donors, 0.5 g/l, 24 h, FIG. 8, compared with control
# Protocol: BDTM Cytometric Bead Array (CBA) Human Th1/Th2/Th17 Cytokine Kit (560484, BD) was used to measure Interleukin-6 (IL-6) and Interleukin-10 (IL-10) protein levels in supernatant following the manufacturer's instructions. After acquiring samples on the FACS (Easycyte 8HT), the FCAP ArrayTM software was used to determine cytokine concentrations. PBMC's from 3 donors were isolated from a buffy coat using Sepmate tubes. The cells were diluted to a concentration of 1*10^7 cells per ml. The PBMC's were seeded in 6 wells plates and treated with 0.5 g/l of 2'-FL or a mix of […] in PBMC culturing medium for 24 h. Cells incubated with no HMOs were used as control. The supernatants from these cultures were collected and BDTM Cytometric Bead Array (CBA) Human Th1/Th2/Th17 Cytokine Kit (560484, BD) was used to measure Interleukin-6 (IL-6) and Interleukin-10 (IL-10) protein levels in supernatant following the manufacturer's instructions. After acquiring samples on the FACS (Easycyte 8HT), the FCAP ArrayTM software was used to determine cytokine concentrations.
# CD25 (IL2RA) = assay: RNA sequencing in PBMCs, CD25 (IL2RA) gene expression; conditions: PBMCs of 3 donors, 0.5 g/l HMO, 6 h, Polymyxin B as control, FIG. 2
# Protocol: (§2) Peripheral blood mononuclear cells (PBMCs) were isolated from a buffy coat using Sepmate tubes. The cells were diluted to a concentration of 1*10^7 cells per ml. The PBMC's were seeded in 6 wells plates and treated with 0.5 g/l of each HMO in PBMC culturing medium for 6 h prior to RNA isolation. Each human milk oligosaccharide (HMO) was mixed with 100 ug/ml (microgram/milliliter) final concentration of Polymyxin B to ensure neutralization of possible endotoxin contamination of HMOs, while equal amounts of Polymyxin B were used as a control. As a positive control HMOs isolated from pooled human milk sample were used. Single HMOs were purchased from BOC Sciences.
# (§3) 2500 ng RNA, isolated from PBMCs of 3 donors, was translated into cDNA, using the quantitect reverse transcription kit (Qiagen). RNA sequencing and analysis was performed by use of the NOVOGENE platform according to standard procedures. Gene expression is shown for CSF3, CD25 (IL2RA), IL12B and IL23A as regulated by the pool of HMOs as isolated from human milk (pHMOs), LNFP-III, LSTa and DSLNT.
# as §2, with “PBMC's from 3 donors” for “Peripheral blood mononuclear cells (PBMCs)”, “HMO” for “human milk oligosaccharide (HMO)”, “ug/ml” for “ug/ml (microgram/milliliter)”
# as §3, with “from PBMCs,” for “from PBMCs of 3 donors,”, “expression was” for “expression is”
# IL23A = assay: RNA sequencing in PBMCs, IL23A gene expression; conditions: PBMCs of 3 donors, 0.5 g/l HMO, 6 h, Polymyxin B as control, FIG. 4
# Protocol: as §2, §3
# (§4) PBMC's from 3 donors were isolated from a buffy coat using Sepmate tubes. The cells were diluted to a concentration of 1*10^7 cells per ml. […]
# (§5) 2500 ng RNA, isolated from PBMCs, was translated into cDNA, using the quantitect reverse transcription kit (Qiagen). […]
# IL12B = assay: RNA sequencing in PBMCs, IL12B gene expression; conditions: PBMCs of 3 donors, 0.5 g/l HMO, 6 h, Polymyxin B as control, FIG. 3
# Protocol: as §2, §3
# as §2, with “PBMC's from 3 donors” for “Peripheral blood mononuclear cells (PBMCs)”, “HMO” for “human milk oligosaccharide (HMO)”, “ug/ml” for “ug/ml (microgram/milliliter)”
# as §3, with “from PBMCs,” for “from PBMCs of 3 donors,”, “expression was” for “expression is”
# CSF3 = assay: RNA sequencing in PBMCs, CSF3 gene expression; conditions: PBMCs of 3 donors, 0.5 g/l HMO, 6 h, Polymyxin B as control, FIG. 1
# Protocol: as §2, §3, §4, §5
molecule,measurement,setting,value
"2′-fucosyllactose [2′FL, reference compound]",effect on the expression of FoxP3 (summary statement),FoxP3,no effect
same,effect on the expression of IL10 (summary statement),Interleukin-10 (IL-10),no effect
same,expression of IL10 (protein level in supernatant),"Interleukin-10 (IL-10); PBMCs of 3 donors, 0.5 g/l, 24 h, FIG. 7, mixture value is average",less than 3 pg/ml
same,"expression of IL6, result in words",Interleukin-6 (IL-6),no expression
"CC(=O)N[C@H]1[C@H](O[C@H]2[C@@H](O)[C@@H](CO)O[C@@H](O[C@H]3[C@H](O)[C@@H](O)C(O)O[C@@H]3CO)[C@@H]2O)O[C@H](CO)[C@@H](O)[C@@H]1O[C@@H]1O[C@H](CO)[C@H](O)[C@H](O[C@]2(C(=O)O)C[C@H](O)[C@@H](NC(C)=O)[C@H]([C@H](O)[C@H](O)CO)O2)[C@H]1O (stereo partly drawn) [LSTa, α-Neu5Ac-(2→3)-β-D-Gal-(1→3)-β-D-GlcNAc-(1→3)-β-D-Gal-(1→4)-Glc]",expression of CD25,CD25 (IL2RA),around 6.3
same,effect on the expression of FoxP3 (summary statement),FoxP3,increase
same,expression of IL23A,IL23A,about 4.4
same,expression of IL12B,IL12B,about 3
same,effect on the expression of IL10 (summary statement),Interleukin-10 (IL-10),increase
α-Neu5Ac-(2→3)-β-D-Gal-(1→3)-[α-Neu5Ac-(2→6)]-β-D-GlcNAc-(1→3)-β-D-Gal-(1→4)-Glc [DSLNT],expression of CD25,CD25 (IL2RA),around 5.5
same,expression of IL12B,IL12B,about 2.5
same,relative expression of CSF3,CSF3,around 4
β-D-Gal-(1→4)-[α-L-Fuc-(1→3)]-β-D-GlcNAc-(1→3)-β-D-Gal-(1→4)-D-Glc [LNFP III],expression of CD25,CD25 (IL2RA),around 5.8
same,effect on the expression of FoxP3 (summary statement),FoxP3,increase
same,expression of IL23A,IL23A,about 4.3
same,expression of IL12B,IL12B,about 2.5
same,effect on the expression of IL10 (summary statement),Interleukin-10 (IL-10),increase
